Laboratory results taken from patent publication US9695155B2, “Herbicidal substituted pyrimidinyloxy benzene compounds” (E. I. DU PONT DE NEMOURS AND COMPANY, priority 2013, dated 2017).

What was measured:
giant foxtail [1] = test: Test C postemergence; assay type: in vivo, Setaria faberii; details: for Foxtail, Giant plant response rating: 31 g ai/ha; for Foxtail, Giant plant response rating / Plant response rating, Foxtail, Giant: scale 0 to 100 (0 no effect, 100 complete control)
Outline: (§1)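 Preemergence: seeds sown in a loam soil–sand blend and sprayed with test chemical in a non-phytotoxic solvent mixture containing surfactant. Postemergence: plants at 2 to 18 cm (1- to 4-leaf stage) in peat-based medium, treated with the same formulation. Greenhouse 13 to 15 days, then visual rating 0 (no effect) to 100 (complete control).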

pigweed [2] = test: Test A preemergence; assay type: in vivo, Amaranthus retroflexus; details: for Pigweed plant response rating (0 to 100 scale): 125 g ai/ha; for Pigweed plant response rating: 500 g ai/ha, 0 to 100 scale where 0 is no effect and 100 is complete control
Outline: (§2)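 Compounds in non-phytotoxic solvent with surfactant applied as soil spray preemergence, or postemergence to plants 2-10 cm at one- to two-leaf stage, in loam/sand. After approximately 10 days in greenhouse, injury rated visually versus untreated controls, 0 (no effect) to 100 (complete control).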

large (Lg) crabgrass [3] = test: Test A preemergence; assay type: in vivo, Digitaria sanguinalis; details: for Crabgrass, Large plant response rating (0 to 100 scale): 125 g ai/ha; for Crabgrass, Large plant response rating: 500 g ai/ha, 0 to 100 scale where 0 is no effect and 100 is complete control
Outline: as §2

wild oat = test: Test C postemergence; assay type: in vivo, Avena fatua; details: for Oat, Wild plant response rating: 31 g ai/ha; for Oat, Wild plant response rating / Plant response rating, Oat, Wild: scale 0 to 100 (0 no effect, 100 complete control)
Outline: as §1

velvetleaf [4] = test: Test A postemergence; assay type: in vivo, Abutilon theophrasti; details: 0 to 100 scale where 0 is no effect and 100 is complete control; for Velvetleaf plant response rating: 125 g ai/ha; for Plant response rating, Velvetleaf: 500 g ai/ha
Outline: as §2

giant foxtail [5] = test: Test A postemergence; assay type: in vivo, Setaria faberii; details: 0 to 100 scale where 0 is no effect and 100 is complete control; for Foxtail, Giant plant response rating: 125 g ai/ha; for Plant response rating, Foxtail, Giant: 500 g ai/ha
Outline: as §2

velvetleaf [6] = test: Test A preemergence; assay type: in vivo, Abutilon theophrasti; details: for Velvetleaf plant response rating (0 to 100 scale): 125 g ai/ha; for Velvetleaf plant response rating: 500 g ai/ha, 0 to 100 scale where 0 is no effect and 100 is complete control
Outline: as §2

giant foxtail [7] = test: Test A preemergence; assay type: in vivo, Setaria faberii; details: for Foxtail, Giant plant response rating (0 to 100 scale): 125 g ai/ha; for Foxtail, Giant plant response rating: 500 g ai/ha, 0 to 100 scale where 0 is no effect and 100 is complete control
Outline: as §2

pigweed [8] = test: Test A postemergence; assay type: in vivo, Amaranthus retroflexus; details: 0 to 100 scale where 0 is no effect and 100 is complete control; for Pigweed plant response rating: 125 g ai/ha; for Plant response rating, Pigweed: 500 g ai/ha
Outline: as §2

chickweed = test: Test C postemergence; assay type: in vivo, Stellaria media; details: for Chickweed plant response rating: 31 g ai/ha; for Chickweed plant response rating / Plant response rating, Chickweed: scale 0 to 100 (0 no effect, 100 complete control)
Outline: as §1

ragweed = test: Test C postemergence; assay type: in vivo, Ambrosia elatior; details: for Ragweed plant response rating: 31 g ai/ha; for Ragweed plant response rating / Plant response rating, Ragweed: scale 0 to 100 (0 no effect, 100 complete control)
Outline: as §1

wheat, winter = test: Test C postemergence; assay type: in vivo, Triticum aestivum; details: for Wheat plant response rating: 31 g ai/ha; for Wheat plant response rating / Plant response rating, Wheat: scale 0 to 100 (0 no effect, 100 complete control)
Outline: as §1

velvetleaf [9] = test: Test C postemergence; assay type: in vivo, Abutilon theophrasti; details: for Velvetleaf plant response rating: 31 g ai/ha; for Velvetleaf plant response rating / Plant response rating, Velvetleaf: scale 0 to 100 (0 no effect, 100 complete control)
Outline: as §1

soybean = test: Test C postemergence; assay type: in vivo, Glycine max; details: for Soybean plant response rating: 31 g ai/ha; for Soybean plant response rating / Plant response rating, Soybean: scale 0 to 100 (0 no effect, 100 complete control)
Outline: as §1

large (Lg) crabgrass [10] = test: Test A postemergence; assay type: in vivo, Digitaria sanguinalis; details: 0 to 100 scale where 0 is no effect and 100 is complete control; for Crabgrass, Large plant response rating: 125 g ai/ha; for Plant response rating, Crabgrass, Large: 500 g ai/ha
Outline: as §2

[11] = postemergence, visual rating, 13 to 15 days
[12] = 125 g ai/ha, postemergence, visual rating
[13] = Postemergence, 62 g ai/ha, 13 to 15 days
[14] = 16 g ai/ha, postemergence, 0 is no effect, 100 is complete control

`N#Cc1cnn(-c2c(C#N)cccc2Oc2ncc(Cl)cn2)c1` [Compound 200] was tested, and the “Foxtail, Giant plant response rating” value (giant foxtail [1]; [11]) was 5, the “Plant response rating, Foxtail, Giant” value (giant foxtail [1]; [12]) was 5 and the “Plant response rating (0 to 100), Foxtail, Giant” value (giant foxtail [1]; 250 g ai/ha, postemergence) was 15. For the same molecule, the “Plant response rating, Foxtail, Giant” value (giant foxtail [1]; [13]) was 5, the “Pigweed plant response rating (0 to 100 scale)” value (pigweed [2]) was 100 and the “Pigweed plant response rating” value (pigweed [2]) was 100. The “Crabgrass, Large plant response rating (0 to 100 scale)” value (large (Lg) crabgrass [3]) was 100, the “Crabgrass, Large plant response rating” value (large (Lg) crabgrass [3]) was 100 and the “Oat, Wild plant response rating” value (wild oat; [11]) was 15. The “Plant response rating, Oat, Wild” value (wild oat; [12]) was 25, the “Plant response rating (0 to 100), Oat, Wild” value (wild oat; 250 g ai/ha, postemergence) was 20 and the “Plant response rating, Oat, Wild” value (wild oat; [13]) was 15. The “Velvetleaf plant response rating” value (velvetleaf [4]) was 100, the “Plant response rating, Velvetleaf” value (velvetleaf [4]) was 100 and the “Foxtail, Giant plant response rating” value (giant foxtail [5]) was 90. For the same molecule, the “Plant response rating, Foxtail, Giant” value (giant foxtail [5]) was 90, the “Velvetleaf plant response rating (0 to 100 scale)” value (velvetleaf [6]) was 100 and the “Velvetleaf plant response rating” value (velvetleaf [6]) was 100. For the same molecule, the “Foxtail, Giant plant response rating (0 to 100 scale)” value (giant foxtail [7]) was 100, the “Foxtail, Giant plant response rating” value (giant foxtail [7]) was 100 and the “Pigweed plant response rating” value (pigweed [8]) was 100. The “Plant response rating, Pigweed” value (pigweed [8]) was 100, the “Chickweed plant response rating” value (chickweed; [11]) was 55 and the “Plant response rating, Chickweed” value (chickweed; [12]) was 95. The “Plant response rating (0 to 100), Chickweed” value (chickweed; 250 g ai/ha, postemergence) was 98, the “Plant response rating, Chickweed” value (chickweed; [13]) was 75 and the “Ragweed plant response rating” value (ragweed; [11]) was 25. The “Plant response rating, Ragweed” value (ragweed; [12]) was 55, the “Plant response rating (0 to 100), Ragweed” value (ragweed; 250 g ai/ha, postemergence) was 85 and the “Plant response rating, Ragweed” value (ragweed; [13]) was 40. For the same molecule, the “Wheat plant response rating” value (wheat, winter; [11]) was 0, the “Plant response rating, Wheat” value (wheat, winter; [12]) was 5 and the “Plant response rating (0 to 100), Wheat” value (wheat, winter; 250 g ai/ha, postemergence) was 5. For the same molecule, the “Plant response rating, Wheat” value (wheat, winter; [13]) was 0, the “Velvetleaf plant response rating” value (velvetleaf [9]; [11]) was 20 and the “Plant response rating, Velvetleaf” value (velvetleaf [9]; [12]) was 75. For the same molecule, the “Plant response rating (0 to 100), Velvetleaf” value (velvetleaf [9]; 250 g ai/ha, postemergence) was 70, the “Plant response rating, Velvetleaf” value (velvetleaf [9]; [13]) was 50 and the “Soybean plant response rating” value (soybean; [11]) was 90. For the same molecule, the “Plant response rating, Soybean” value (soybean; [12]) was 95, the “Plant response rating (0 to 100), Soybean” value (soybean; 250 g ai/ha, postemergence) was 90 and the “Plant response rating, Soybean” value (soybean; [13]) was 95. For the same molecule, the “Crabgrass, Large plant response rating” value (large (Lg) crabgrass [10]) was 90 and the “Plant response rating, Crabgrass, Large” value (large (Lg) crabgrass [10]) was 90.
With `Clc1cnc(Oc2cccc(Cl)c2-n2cc(Cl)cn2)nc1` [Compound 220] the “Plant response rating (0 to 100), Foxtail, Giant” value (giant foxtail [1]; [14]) was 0, the “Foxtail, Giant plant response rating” value (giant foxtail [1]; [11]) was 5 and the “Plant response rating, Foxtail, Giant” value (giant foxtail [1]; [12]) was 5. For the same molecule, the “Plant response rating, Foxtail, Giant” value (giant foxtail [1]; [13]) was 10, the “Pigweed plant response rating (0 to 100 scale)” value (pigweed [2]) was 100 and the “Pigweed plant response rating” value (pigweed [2]) was 100. For the same molecule, the “Crabgrass, Large plant response rating (0 to 100 scale)” value (large (Lg) crabgrass [3]) was 100, the “Crabgrass, Large plant response rating” value (large (Lg) crabgrass [3]) was 100 and the “Plant response rating (0 to 100), Oat, Wild” value (wild oat; [14]) was 5. The “Oat, Wild plant response rating” value (wild oat; [11]) was 25, the “Plant response rating, Oat, Wild” value (wild oat; [12]) was 50 and the “Plant response rating, Oat, Wild” value (wild oat; [13]) was 35. The “Velvetleaf plant response rating” value (velvetleaf [4]) was 100, the “Plant response rating, Velvetleaf” value (velvetleaf [4]) was 100 and the “Foxtail, Giant plant response rating” value (giant foxtail [5]) was 80. The “Plant response rating, Foxtail, Giant” value (giant foxtail [5]) was 90, the “Velvetleaf plant response rating (0 to 100 scale)” value (velvetleaf [6]) was 20 and the “Velvetleaf plant response rating” value (velvetleaf [6]) was 70. For the same molecule, the “Foxtail, Giant plant response rating (0 to 100 scale)” value (giant foxtail [7]) was 100, the “Foxtail, Giant plant response rating” value (giant foxtail [7]) was 100 and the “Pigweed plant response rating” value (pigweed [8]) was 100. For the same molecule, the “Plant response rating, Pigweed” value (pigweed [8]) was 100, the “Plant response rating (0 to 100), Chickweed” value (chickweed; [14]) was 65 and the “Chickweed plant response rating” value (chickweed; [11]) was 70. For the same molecule, the “Plant response rating, Chickweed” value (chickweed; [12]) was 80, the “Plant response rating, Chickweed” value (chickweed; [13]) was 80 and the “Plant response rating (0 to 100), Ragweed” value (ragweed; [14]) was 10. For the same molecule, the “Ragweed plant response rating” value (ragweed; [11]) was 10, the “Plant response rating, Ragweed” value (ragweed; [12]) was 25 and the “Plant response rating, Ragweed” value (ragweed; [13]) was 15. For the same molecule, the “Plant response rating (0 to 100), Wheat” value (wheat, winter; [14]) was 0, the “Wheat plant response rating” value (wheat, winter; [11]) was 0 and the “Plant response rating, Wheat” value (wheat, winter; [12]) was 0. The “Plant response rating, Wheat” value (wheat, winter; [13]) was 0, the “Plant response rating (0 to 100), Velvetleaf” value (velvetleaf [9]; [14]) was 30 and the “Velvetleaf plant response rating” value (velvetleaf [9]; [11]) was 50. For the same molecule, the “Plant response rating, Velvetleaf” value (velvetleaf [9]; [12]) was 60, the “Plant response rating, Velvetleaf” value (velvetleaf [9]; [13]) was 65 and the “Plant response rating (0 to 100), Soybean” value (soybean; [14]) was 40. For the same molecule, the “Soybean plant response rating” value (soybean; [11]) was 65, the “Plant response rating, Soybean” value (soybean; [12]) was 95 and the “Plant response rating, Soybean” value (soybean; [13]) was 60. The “Crabgrass, Large plant response rating” value (large (Lg) crabgrass [10]) was 100 and the “Plant response rating, Crabgrass, Large” value (large (Lg) crabgrass [10]) was 100.
